Structures can show the parent of a compound that is named as a salt.
Assays:
[1] = target: T1, G9a histone lysine methyltransferase (Homo sapiens, UniProt Q96KQ7); conditions: reported activity; cited from earlier work
T1 sequence (Q96KQ7 1-1210): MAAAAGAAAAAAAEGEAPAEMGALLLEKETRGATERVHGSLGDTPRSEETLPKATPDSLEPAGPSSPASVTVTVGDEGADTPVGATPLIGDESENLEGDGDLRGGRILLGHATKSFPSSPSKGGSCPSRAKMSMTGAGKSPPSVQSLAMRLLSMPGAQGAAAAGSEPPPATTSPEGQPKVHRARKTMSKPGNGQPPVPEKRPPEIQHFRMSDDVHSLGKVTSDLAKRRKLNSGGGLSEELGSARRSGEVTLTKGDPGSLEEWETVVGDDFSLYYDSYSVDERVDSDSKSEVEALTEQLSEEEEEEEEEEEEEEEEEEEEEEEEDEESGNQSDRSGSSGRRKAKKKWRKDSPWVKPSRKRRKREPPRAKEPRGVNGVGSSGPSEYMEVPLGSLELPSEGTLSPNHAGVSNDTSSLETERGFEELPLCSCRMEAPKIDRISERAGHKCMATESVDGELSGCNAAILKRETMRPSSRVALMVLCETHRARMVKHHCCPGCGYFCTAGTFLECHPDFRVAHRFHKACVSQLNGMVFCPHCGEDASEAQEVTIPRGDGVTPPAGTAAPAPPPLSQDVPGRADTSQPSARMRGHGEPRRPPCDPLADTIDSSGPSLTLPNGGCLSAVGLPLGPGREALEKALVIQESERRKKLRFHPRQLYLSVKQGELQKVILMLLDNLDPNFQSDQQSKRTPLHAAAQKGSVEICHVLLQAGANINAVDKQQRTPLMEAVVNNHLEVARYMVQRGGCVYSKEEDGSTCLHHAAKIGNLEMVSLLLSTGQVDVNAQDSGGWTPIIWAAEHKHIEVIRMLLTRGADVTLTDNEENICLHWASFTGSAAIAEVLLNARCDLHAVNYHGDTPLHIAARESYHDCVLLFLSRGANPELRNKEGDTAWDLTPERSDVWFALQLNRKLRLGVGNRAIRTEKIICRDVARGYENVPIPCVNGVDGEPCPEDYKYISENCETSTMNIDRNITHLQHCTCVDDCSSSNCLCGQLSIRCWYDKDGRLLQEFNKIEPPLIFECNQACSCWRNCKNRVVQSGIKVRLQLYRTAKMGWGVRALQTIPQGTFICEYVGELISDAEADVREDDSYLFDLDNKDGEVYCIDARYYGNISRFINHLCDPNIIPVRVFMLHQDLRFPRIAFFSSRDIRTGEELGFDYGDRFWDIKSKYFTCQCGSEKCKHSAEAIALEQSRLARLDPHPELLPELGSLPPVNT

[2] = target: T2, G9a-like protein (Homo sapiens, UniProt Q9H9B1); conditions: reported activity; cited from earlier work
T2 sequence (Q9H9B1 1-1298): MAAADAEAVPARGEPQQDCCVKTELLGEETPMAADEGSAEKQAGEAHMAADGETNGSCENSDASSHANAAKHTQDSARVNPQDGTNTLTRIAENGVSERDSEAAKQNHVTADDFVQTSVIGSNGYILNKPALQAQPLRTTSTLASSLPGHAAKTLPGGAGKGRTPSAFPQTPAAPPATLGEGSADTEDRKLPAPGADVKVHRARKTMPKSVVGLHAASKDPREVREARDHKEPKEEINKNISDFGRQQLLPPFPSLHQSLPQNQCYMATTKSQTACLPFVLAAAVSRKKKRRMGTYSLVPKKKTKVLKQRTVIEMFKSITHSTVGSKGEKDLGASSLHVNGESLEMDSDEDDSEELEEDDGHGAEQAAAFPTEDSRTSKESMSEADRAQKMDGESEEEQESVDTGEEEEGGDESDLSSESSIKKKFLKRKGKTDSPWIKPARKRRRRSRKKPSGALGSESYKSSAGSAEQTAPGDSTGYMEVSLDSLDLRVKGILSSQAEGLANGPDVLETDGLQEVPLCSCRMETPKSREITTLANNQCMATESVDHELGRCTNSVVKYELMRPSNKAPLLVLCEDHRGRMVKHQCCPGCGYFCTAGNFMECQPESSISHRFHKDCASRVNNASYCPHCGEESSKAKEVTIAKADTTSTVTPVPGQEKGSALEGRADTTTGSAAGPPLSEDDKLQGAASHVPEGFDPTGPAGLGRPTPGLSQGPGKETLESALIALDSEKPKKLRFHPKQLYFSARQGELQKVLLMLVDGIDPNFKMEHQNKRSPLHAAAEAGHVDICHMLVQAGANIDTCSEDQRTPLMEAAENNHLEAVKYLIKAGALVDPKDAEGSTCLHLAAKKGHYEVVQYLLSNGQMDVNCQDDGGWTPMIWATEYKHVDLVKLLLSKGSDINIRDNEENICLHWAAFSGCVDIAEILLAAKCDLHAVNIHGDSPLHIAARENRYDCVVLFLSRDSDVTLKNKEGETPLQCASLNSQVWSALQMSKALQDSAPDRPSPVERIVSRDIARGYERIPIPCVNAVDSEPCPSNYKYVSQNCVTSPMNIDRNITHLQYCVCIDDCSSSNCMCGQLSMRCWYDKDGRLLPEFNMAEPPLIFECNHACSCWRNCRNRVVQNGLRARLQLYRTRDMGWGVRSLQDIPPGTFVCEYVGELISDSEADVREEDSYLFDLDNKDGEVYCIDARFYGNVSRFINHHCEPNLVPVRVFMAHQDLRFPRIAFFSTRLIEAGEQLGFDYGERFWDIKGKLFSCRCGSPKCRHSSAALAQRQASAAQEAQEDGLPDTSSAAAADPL

[3] = tested on: lysine 9 of histone H3 (H3K9); conditions: has been shown; cited from earlier work
[4] = tested on: Neonatal cardiac fibroblasts; assay: cardiac marker gene expression by qPCR in neonatal cardiac fibroblasts treated with HMT inhibitors, no microRNA; assay type: cell-based, mouse; conditions: 1 μM, after 3 days, absence of microRNA combination (FIG. 9A)
Protocol: Neonatal cardiac fibroblasts were treated with 1 μM of the H3K9me3 inhibitor BIX-01294 (BIX) or 1 μM of the H3K27me3/H4K20me3 inhibitor 3-Deazaneplanocin A hydrochloride (DZNep) from day 1 to day 3 in the absence (A) or presence of microRNA combination (MC) (B). Gene expression of cardiac markers was assessed by qPCR. Data are shown as Avg+Sdv. *P<0.05.
Inhibition of histone methyltransferase activity by small molecule compounds was investigated. Neonatal cardiac fibroblasts were treated with 1 μM of the H3K9 methylation inhibitor BIX-01294 or 1 μM of the H3K27/H4K20 methylation inhibitor 3-Deazaneplanocin A hydrochloride (DZNep). After 3 days, RNA was harvested using standard protocols known in the art, and cardiac gene expression was assessed by qPCR. The cardiac genes tested were Tbx5, Mef2C, Gata4, and Nkx2.5. […] Alternatively, inhibition of H3K9 causes upregulation of other cardiac markers, such asTbx5, and therefore inhibition of H3K9 methylation also promotes the expression of at least one cardiac marker.

[5] = tested on: Human fibroblasts (BJ cells); assay: cardiac marker gene expression by qPCR in miRNA-transfected human fibroblasts with JAK inhibitor; assay type: cell-based; conditions: 1 μM, compared to cells transfected with the miRNAs alone
Protocol: Gene expression was determined by qPCR. (A) Isl-1 gene expression. (B) […] gene expression. (C) Tbx5 gene expression. (D) Mef2c gene expression. (E) Gata-4 gene expression.
RNA was harvested and prepared according to standard protocols for qPCR gene expression analysis. The expression of cardiac marker genes, such as Isl1, Mesp1, Tbx5, Mef2c, Gata4, and Hand2 was assessed.

Row | Structure (SMILES) | activity on G9a histone lysine methyltransferase [1] | activity on G9a-like protein [2] | methylation at lysine 9 of histone H3 (H3K9) [3] | Mef2C cardiac marker gene expression [4] | Nkx2.5 cardiac marker gene expression [4] | Tbx5 cardiac marker gene expression [4] | expression of cardiac markers (Isl1, Mesp1, Tbx5, Mef2c, Gata4, Hand2) [5]
1 | COc1cc2nc(N3CCCN(C)CC3)nc(NC3CCN(Cc4ccccc4)CC3)c2cc1OC [BIX-01294, 2-(Hexahydro-4-methyl-1H-1,4-diazepin-1-yl)-6,7-dimethoxy-N-[1-(phenylmethyl)-4-piperidinyl]-4-quinazolinamine trihydrochloride] | inhibition | inhibition | inhibit | significant downregulation | significant downregulation | upregulation | 
2 | CC(C)(C)c1nc2c3ccc(F)cc3c3c(=O)[nH]ccc3c2[nH]1 [JAK inhibitor I, 2-(1,1-Dimethylethyl)-9-fluoro-3,6-dihydro-7H-benz[h]-imidaz[4,5-f]isoquinolin-7-one] |  |  |  |  |  |  | increases
